ChEMBL document CHEMBL3885861, “Open TG-GATES”

Species on record: Rattus norvegicus
Assay: Open TG-GATES - Regimen: Daily Repeat
Type: toxicity, organism-based, Sprague-Dawley
Parameters: regimen Daily Repeat, gender Male, age 6 weeks
Conditions: in vivo, po, 6 mg/kg, route gavage, dose level Middle; for APTT / Bas / Eos / Fbg / Hb / Lym / MCH / MCHC / MCV / Mono / Neu / PT / Plat / RBC / Ret / WBC: tissue Blood; for KIDNEY_L / KIDNEY_R / KIDNEY_TOTAL: tissue Kidney; for LIVER: tissue Liver; for ALP / ALT / AST / BUN / CRE / Ca / Cl / DBIL / GLC / IP / K / LDH / Na / PL / RALB / TBIL / TC / TG / TP / gamma-GTP: tissue Plasma

`OCCN1CCN(CCCN2c3ccccc3Sc3ccc(C(F)(F)F)cc32)CC1` [FLUPHENAZINE] gave a TERMINAL_BW (72 h, time 3 day) of 198.7 g, an APTT (72 h, time 3 day) of 15.9 s and a Bas (72 h, time 3 day) of 0%. It also gave an Eos (72 h, time 3 day) of 0.6%, a Fbg (72 h, time 3 day) of 227.2 mg/dL and a Hb (72 h, time 3 day) of 15.1 g/dL. The Lym (72 h, time 3 day) was 88.4%, the MCH (72 h, time 3 day) was 21.2 pg and the MCHC (72 h, time 3 day) was 33.3%. It also gave an MCV (72 h, time 3 day) of 63.7 fL, a Mono (72 h, time 3 day) of 5.8% and a Neu (72 h, time 3 day) of 5.2%. It also gave a PT (72 h, time 3 day) of 12.2 s, a Plat (72 h, time 3 day) of 119.2 x10_4/uL and an RBC (72 h, time 3 day) of 711.6 x10_4/ul. For the same molecule, the Ret (72 h, time 3 day) was 3.4%, the WBC (72 h, time 3 day) was 119.1 x10_2/uL and the KIDNEY_L (72 h, time 3 day) was 0.9 g. It also gave a KIDNEY_R (72 h, time 3 day) of 0.9 g, a KIDNEY_TOTAL (72 h, time 3 day) of 1.8 g and an LIVER (72 h, time 3 day) of 9.5 g. For the same molecule, the ALP (72 h, time 3 day) was 909.4 IU/L, the ALT (72 h, time 3 day) was 35 IU/L and the AST (72 h, time 3 day) was 58.6 IU/L. For the same molecule, the BUN (72 h, time 3 day) was 24.8 mg/dL, the CRE (72 h, time 3 day) was 0.6 mg/dL and the Ca (72 h, time 3 day) was 10.8 mg/dL. It also gave a Cl (72 h, time 3 day) of 106.4 meq/L, a DBIL (72 h, time 3 day) of 0.008 mg/dL and a GLC (72 h, time 3 day) of 177.4 mg/dL. It also gave an IP (72 h, time 3 day) of 8 mg/dL, a K (72 h, time 3 day) of 4.6 meq/L and an LDH (72 h, time 3 day) of 84.6 IU/L. For the same molecule, the Na (72 h, time 3 day) was 138.4 meq/L, the PL (72 h, time 3 day) was 186.6 mg/dL and the RALB (72 h, time 3 day) was 4.3 g/dL. For the same molecule, the TBIL (72 h, time 3 day) was 0.2 mg/dL, the TC (72 h, time 3 day) was 98.4 mg/dL and the TG (72 h, time 3 day) was 112.6 mg/dL. It also gave a TP (72 h, time 3 day) of 6.1 g/dL, a gamma-GTP (72 h, time 3 day) of 0.6 IU/L and a TERMINAL_BW ([…], time 7 day) of 230.3 g. The TERMINAL_BW ([…], time 14 day) was 284.3 g, the TERMINAL_BW ([…], time 28 day) was 346.8 g and the APTT ([…], time 7 day) was 16.8 s. The Bas ([…], time 7 day) was 0%, the Eos ([…], time 7 day) was 0.6% and the Fbg ([…], time 7 day) was 224.2 mg/dL. The Hb ([…], time 7 day) was 14 g/dL, the Lym ([…], time 7 day) was 78.6% and the MCH ([…], time 7 day) was 21 pg. The MCHC ([…], time 7 day) was 33.3%, the MCV ([…], time 7 day) was 63.1 fL and the Mono ([…], time 7 day) was 5.6%. The Neu ([…], time 7 day) was 15.2%, the PT ([…], time 7 day) was 12.1 s and the Plat ([…], time 7 day) was 82.3 x10_4/uL. The RBC ([…], time 7 day) was 668.6 x10_4/ul, the Ret ([…], time 7 day) was 3.6% and the WBC ([…], time 7 day) was 95.8 x10_2/uL. For the same molecule, the APTT ([…], time 14 day) was 15.9 s, the Bas ([…], time 14 day) was 0% and the Eos ([…], time 14 day) was 0.8%. The Fbg ([…], time 14 day) was 217.2 mg/dL, the Hb ([…], time 14 day) was 14.4 g/dL and the Lym ([…], time 14 day) was 79.6%. It also gave an MCH ([…], time 14 day) of 20.1 pg, an MCHC ([…], time 14 day) of 33.3% and an MCV ([…], time 14 day) of 60.5 fL. The Mono ([…], time 14 day) was 5.8%, the Neu ([…], time 14 day) was 14% and the PT ([…], time 14 day) was 12.1 s. For the same molecule, the Plat ([…], time 14 day) was 97 x10_4/uL, the RBC ([…], time 14 day) was 716.4 x10_4/ul and the Ret ([…], time 14 day) was 3.6%. The WBC ([…], time 14 day) was 128.9 x10_2/uL, the APTT ([…], time 28 day) was 17.2 s and the Bas ([…], time 28 day) was 0%. It also gave an Eos ([…], time 28 day) of 1.2%, a Fbg ([…], time 28 day) of 209.2 mg/dL and a Hb ([…], time 28 day) of 15.6 g/dL. It also gave a Lym ([…], time 28 day) of 83%, an MCH ([…], time 28 day) of 19.7 pg and an MCHC ([…], time 28 day) of 33.4%. The MCV ([…], time 28 day) was 58.9 fL, the Mono ([…], time 28 day) was 5% and the Neu ([…], time 28 day) was 10.6%. The PT ([…], time 28 day) was 12.3 s, the Plat ([…], time 28 day) was 89.8 x10_4/uL and the RBC ([…], time 28 day) was 792.6 x10_4/ul. It also gave a Ret ([…], time 28 day) of 2.2%, a WBC ([…], time 28 day) of 134.3 x10_2/uL and a KIDNEY_L ([…], time 7 day) of 1 g. It also gave a KIDNEY_R ([…], time 7 day) of 1 g, a KIDNEY_TOTAL ([…], time 7 day) of 2 g and a KIDNEY_L ([…], time 14 day) of 1.1 g. It also gave a KIDNEY_R ([…], time 14 day) of 1.1 g, a KIDNEY_TOTAL ([…], time 14 day) of 2.3 g and a KIDNEY_L ([…], time 28 day) of 1.2 g. For the same molecule, the KIDNEY_R ([…], time 28 day) was 1.2 g, the KIDNEY_TOTAL ([…], time 28 day) was 2.4 g and the LIVER ([…], time 7 day) was 10.9 g. For the same molecule, the LIVER ([…], time 14 day) was 11.9 g, the LIVER ([…], time 28 day) was 13.7 g and the ALP ([…], time 7 day) was 836 IU/L. For the same molecule, the ALT ([…], time 7 day) was 33 IU/L, the AST ([…], time 7 day) was 62.6 IU/L and the BUN ([…], time 7 day) was 18 mg/dL. It also gave a CRE ([…], time 7 day) of 0.5 mg/dL, a Ca ([…], time 7 day) of 10.5 mg/dL and a Cl ([…], time 7 day) of 105.2 meq/L. The DBIL ([…], time 7 day) was 0.012 mg/dL, the GLC ([…], time 7 day) was 170.6 mg/dL and the IP ([…], time 7 day) was 8.4 mg/dL. It also gave a K ([…], time 7 day) of 4.8 meq/L, an LDH ([…], time 7 day) of 79.4 IU/L and a Na ([…], time 7 day) of 137.4 meq/L. It also gave a PL ([…], time 7 day) of 178.8 mg/dL, an RALB ([…], time 7 day) of 4.1 g/dL and a TBIL ([…], time 7 day) of 0.3 mg/dL. For the same molecule, the TC ([…], time 7 day) was 96.4 mg/dL, the TG ([…], time 7 day) was 106 mg/dL and the TP ([…], time 7 day) was 6 g/dL. For the same molecule, the gamma-GTP ([…], time 7 day) was 1 IU/L, the ALP ([…], time 14 day) was 859.2 IU/L and the ALT ([…], time 14 day) was 29.4 IU/L. For the same molecule, the AST ([…], time 14 day) was 63.2 IU/L, the BUN ([…], time 14 day) was 18 mg/dL and the CRE ([…], time 14 day) was 0.5 mg/dL. It also gave a Ca ([…], time 14 day) of 10.7 mg/dL, a Cl ([…], time 14 day) of 103.6 meq/L and a DBIL ([…], time 14 day) of 0 mg/dL. It also gave a GLC ([…], time 14 day) of 190.8 mg/dL, an IP ([…], time 14 day) of 7.8 mg/dL and a K ([…], time 14 day) of 4.6 meq/L. The LDH ([…], time 14 day) was 99.2 IU/L, the Na ([…], time 14 day) was 135.2 meq/L and the PL ([…], time 14 day) was 141 mg/dL. The RALB ([…], time 14 day) was 4.2 g/dL, the TBIL ([…], time 14 day) was 0.3 mg/dL and the TC ([…], time 14 day) was 68 mg/dL. The TG ([…], time 14 day) was 109.2 mg/dL, the TP ([…], time 14 day) was 5.9 g/dL and the gamma-GTP ([…], time 14 day) was 1.6 IU/L. The ALP ([…], time 28 day) was 483.8 IU/L, the ALT ([…], time 28 day) was 32.8 IU/L and the AST ([…], time 28 day) was 58.6 IU/L. For the same molecule, the BUN ([…], time 28 day) was 21.4 mg/dL, the CRE ([…], time 28 day) was 0.6 mg/dL and the Ca ([…], time 28 day) was 10.7 mg/dL. It also gave a Cl ([…], time 28 day) of 107.6 meq/L, a DBIL ([…], time 28 day) of 0.006 mg/dL and a GLC ([…], time 28 day) of 175.2 mg/dL. The IP ([…], time 28 day) was 6.3 mg/dL, the K ([…], time 28 day) was 4.5 meq/L and the LDH ([…], time 28 day) was 75 IU/L. It also gave a Na ([…], time 28 day) of 140.4 meq/L, a PL ([…], time 28 day) of 147 mg/dL and an RALB ([…], time 28 day) of 4.2 g/dL. For the same molecule, the TBIL ([…], time 28 day) was 0.3 mg/dL, the TC ([…], time 28 day) was 66.4 mg/dL and the TG ([…], time 28 day) was 138.8 mg/dL. The TP ([…], time 28 day) was 6.3 g/dL and the gamma-GTP ([…], time 28 day) was 1.6 IU/L.
